Where no end group is shown, it is not given here.
Experiments:
[1] = tested on: EAE induced with MBP, MOG or MBP/MOG combination; settings: (PL/J×SJL/J) F1 mice, cited from earlier work
[2] = tested on: EAE induced by Y-MSPb-reactive line T-cells; assay: EAE associated with multiple pathogenic autoreactivities induced by transfer of Y-MSPb-reactive line T-cells; format: in vivo, (C3H.SW×SJL/J)F1 mice; settings: in PBS given daily i.p. from the day of T-cell transfer; FIG. 9B
Experimental: Y-MSPb, the purified protein product of the synthetic Y-MSPb gene, disclosed in WO 01-31037, designed to encode tandemly arranged disease-relevant epitopes clusters of the encephalitogenic proteins MBP, PLP, MOG, and MOBP, was tested for its immunomodulatory effect on EAE associated with multiple pathogenic autoreactivities, upon tolerogenic administration, in the same way as described for Y-MSPa in WO 01-31037.
Line T-cells were selected in vitro with Y-MSPb from lymph node cells (LNCs) of (C3H.SW×SJL/J)F1 mice immunized with Y-MSPb (containing encephalitogenic epitopes of MOG, MBP, PLP and MOBP) in CFA, and were analyzed after primary response (left panel) and after four cycles of selection (right panel) for their proliferative response to Y-MSPb, phMOG 34-56, phMOG 1-22, shMOG/E, PLP 139-151, shPLP/E, MBP 87-101 and shMBP/E (10 μ/ml). The proliferative response to purified protein derivative (PPD) (5 μ/ml) was analyzed as a measure of specificity. The line T cells are directed against each of the myelin autoantigens.

[3] = tested on: APL-specific T-cell lines; assay: Cytokine profile of APL-specific T-cell lines (ELISA); format: cell-based, mice; settings: pilot studies, not shown
From the text: (§1) For EAE induced in H-2^b haplotype mice (C3H.SW, C57BL) by MOG 35-55 (SEQ ID NO: 234), we have defined residues 41 and 44 as crucial TCR contact residues for the interaction between the encephalitogenic nonameric core sequence MOG 40-48, found by molecular modelling studies to represent the preferred binding mode for MOG 35-55 to IA^b, and the TCR of H-2^b MOG-specific T-cells. APLs with non-conservative substitutions at either or both of these residues elicited T-cell responses which were not encephalitogenic (not shown). In vitro, these APLs inhibited the proliferation of T-cell clones to MOG 37-52, the minimal optimal stimulatory peptide. […] MOG35-55-specific T-cell line was raised from MOG35-55-immunized C3H.SW mice as described (Mendel et al., 1996). Cytokine assays were performed by ELISA according to PharMingen standard protocols.

[4] = tested on: EAE induced with MOG 37-52; assay: EAE induced with MOG 37-52, treatment with MOG APLs; format: in vivo; settings: C3H.SW mice; 400 μg in PBS i.v. on days 5, 7, 9 and 12 after encephalitogenic challenge; FIG. 8
[5] = tested on: H-2^b haplotype mice (C3H.SW, C57BL); assay: Encephalitogenicity of T-cell responses elicited by APLs; format: in vivo; settings: H-2^b mice; not shown
From the text: as §1

[6] = tested on: lymph node cells; assay: Ex vivo response to MOG 37-52 by lymph node cells isolated from treated mice; format: cell-based; settings: cells from APL-treated C3H.SW mice
[7] = tested on: TCR; assay: TCR signaling in MOG 37-52-reactive T-cell clones; format: cell-based, mice; settings: peptide alone; not shown
Experimental: Possible mechanisms by which the relevant APLs may inhibit MOG 37-52-reactive T-cell clones in vitro were tested by analyzing their effect on TCR signaling, as well as on cytokine secretion by the clones.

[8] = tested on: chronic EAE induced with whole PLP; settings: SJL/J mice; tolerization; cited from earlier work

MBPAc1-11: immunodominant encephalitogenic epitope within MBP (Ac-MGNHSGKRELS; UniProt P04370 1-11, looked up, fragment)
MBP-induced EAE [1]: suppresses
MOG-induced EAE [1]: no effect
clinical severity of EAE induced with a combination of MBP and MOG ([1]; tolerogenic administration): marginal therapeutic effect

MOG 37-52: native MOG peptide, the minimal optimal stimulatory peptide (VGWYRPPFSRVVHLYR; Synthetic peptide containing sequence 37-52 of MOG.)
EAE induced by Y-MSPb-reactive line T-cells: disease incidence or severity [2]: no significant effect

MOG 37-A44-52: APL of MOG 37-52 wherein F44 is substituted by A44 (VGWYRPPASRVVHLYR; The peptide of SEQ ID NO231 in which the residue at position 8 was replaced by Ala.)
cytokine profile of APL-specific T-cell lines [3]: elicits Th2 T-cells
severity and incidence of EAE induced with the native MOG 37-52 [4]: marked decrease
encephalitogenicity of the APL / of the T-cell responses it elicits [5]: non-encephalitogenicity
response ex vivo to MOG 37-52 by lymph node cells isolated from treated mice [6]: markedly reduced response
TCR signaling in the T-cell clones [7]: induces partial TCR signaling

MOG 37-Q41-52: MOG 37-52 altered peptide ligand substituted at TCR contact residue 41 (VGWYQPPFSRVVHLYR; The peptide of SEQ ID NO231 in which the residue at position 5 was replaced by Gln.)
severity and incidence of EAE induced with the native MOG 37-52 [4]: marked decrease
response ex vivo to MOG 37-52 by lymph node cells isolated from treated mice [6]: markedly reduced response

PLP139-151: major encephalitogenic peptide of PLP (CHCLGKWLGHPDK; UniProt P60202 139-151, looked up, fragment)
EAE induced by Y-MSPb-reactive line T-cells: disease incidence or severity [2]: no significant effect
chronic EAE induced with whole PLP: acute phase and relapses [8]: abrogated the primary acute phase, but not subsequent relapses
